Laboratory results reported in patent US7118895B2, “Process for producing aglycon by using diglycosidase and flavor-improved food containing the aglycon and converting agent to be used in the process” (Amano Enzyme Inc., priority 2000, dated 2006).

Tested on: Crude diglycosidase
Experiment: Examination of pH in the conversion into isoflavone aglycons by diglycosidase using soybean materials
Format: biochemical, Penicillium multicolor IAM7153
Set-up: Decomposition efficiency of genistin family in soymilk / Decomposition efficiency of genistin family in defatted soybean / Decomposition efficiency of daidzin family in defatted soybean: concentration or dose not given beside the values
Conditions: for Decomposition efficiency of daidzin family in roasted soy flour: 55° C.
Procedure, shortened: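 Conversion of glycosides to isoflavone aglycons was followed by HPLC after crude diglycosidase (1.88 AU/mL enzyme solution) acted at 55° C for up to 6 h on four soy materials, 50 mg each, held at pH 2–11.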

[1] = pH4.8, heat treatment of enzyme: no, reaction time 0 h
[2] = pH4.8, heat treatment of enzyme: no, reaction time 1 h
[3] = pH4.8, heat treatment of enzyme: no, reaction time 3 h
[4] = pH4.8, heat treatment of enzyme: no, reaction time 6 h
[5] = pH4.8, heat treatment of enzyme: yes, reaction time 6 h
[6] = pH6.6, heat treatment of enzyme: no, reaction time 0 h
[7] = pH6.6, heat treatment of enzyme: no, reaction time 1 h
[8] = pH6.6, heat treatment of enzyme: no, reaction time 3 h
[9] = pH6.6, heat treatment of enzyme: no, reaction time 6 h
[10] = pH6.6, heat treatment of enzyme: yes, reaction time 6 h

What does the source list for `O=c1c(-c2ccc(O)cc2)coc2cc(O[C@@H]3O[C@H](CO)[C@@H](O)[C@H](O)[C@H]3O)ccc12` [daidzin]?
Decomposition efficiency of daidzin family in concentrated soybean protein (pH1.6, heat treatment of enzyme: no, reaction time 0 h): 52.5%; Decomposition efficiency of daidzin family in concentrated soybean protein (pH1.6, heat treatment of enzyme: no, reaction time 1 h): 53.0%; Decomposition efficiency of daidzin family in concentrated soybean protein (pH1.6, heat treatment of enzyme: no, reaction time 3 h): 55.0%; Decomposition efficiency of daidzin family in concentrated soybean protein (pH1.6, heat treatment of enzyme: no, reaction time 6 h): 57.2%; Decomposition efficiency of daidzin family in concentrated soybean protein (pH1.6, heat treatment of enzyme: yes, reaction time 6 h): 59.0%; Decomposition efficiency of daidzin family in roasted soy flour (pH2, heat treatment of enzyme no, reaction time 0 h): 49.1; Decomposition efficiency of daidzin family in roasted soy flour (pH2, heat treatment of enzyme no, reaction time 1 h): 47.6; Decomposition efficiency of daidzin family in roasted soy flour (pH2, heat treatment of enzyme no, reaction time 3 h): 50.3; Decomposition efficiency of daidzin family in roasted soy flour (pH2, heat treatment of enzyme no, reaction time 6 h): 53.1; Decomposition efficiency of daidzin family in roasted soy flour (pH2, heat treatment of enzyme yes, reaction time 6 h): 53.8; Decomposition efficiency of daidzin family in soymilk (pH2.3, heat treatment of enzyme: no, reaction time 0 h): 34.4%; Decomposition efficiency of daidzin family in soymilk (pH2.3, heat treatment of enzyme: no, reaction time 1 h): not detected; Decomposition efficiency of daidzin family in soymilk (pH2.3, heat treatment of enzyme: no, reaction time 3 h): not detected; Decomposition efficiency of daidzin family in soymilk (pH2.3, heat treatment of enzyme: no, reaction time 6 h): not detected; Decomposition efficiency of daidzin family in soymilk (pH2.3, heat treatment of enzyme: yes, reaction time 6 h): 38.8%; Decomposition efficiency of daidzin family in defatted soybean (pH2.6, heat treatment of enzyme: no, reaction time 0 h): 45.8%; Decomposition efficiency of daidzin family in defatted soybean (pH2.6, heat treatment of enzyme: no, reaction time 1 h): 37.5%; Decomposition efficiency of daidzin family in defatted soybean (pH2.6, heat treatment of enzyme: no, reaction time 3 h): 17.3%; Decomposition efficiency of daidzin family in defatted soybean (pH2.6, heat treatment of enzyme: no, reaction time 6 h): 16.9%; Decomposition efficiency of daidzin family in defatted soybean (pH2.6, heat treatment of enzyme: yes, reaction time 6 h): 48.0%; Decomposition efficiency of daidzin family in concentrated soybean protein (pH2.7, heat treatment of enzyme: no, reaction time 0 h): 52.5%; Decomposition efficiency of daidzin family in concentrated soybean protein (pH2.7, heat treatment of enzyme: no, reaction time 1 h): 12.9%; Decomposition efficiency of daidzin family in concentrated soybean protein (pH2.7, heat treatment of enzyme: no, reaction time 3 h): 12.5%; Decomposition efficiency of daidzin family in concentrated soybean protein (pH2.7, heat treatment of enzyme: no, reaction time 6 h): 9.3%; Decomposition efficiency of daidzin family in concentrated soybean protein (pH2.7, heat treatment of enzyme: yes, reaction time 6 h): 53.0%; Decomposition efficiency of daidzin family in roasted soy flour (pH3, heat treatment of enzyme no, reaction time 0 h): 49.1; Decomposition efficiency of daidzin family in roasted soy flour (pH3, heat treatment of enzyme no, reaction time 1 h): not detected; Decomposition efficiency of daidzin family in roasted soy flour (pH3, heat treatment of enzyme no, reaction time 3 h): not detected; Decomposition efficiency of daidzin family in roasted soy flour (pH3, heat treatment of enzyme no, reaction time 6 h): not detected; Decomposition efficiency of daidzin family in roasted soy flour (pH3, heat treatment of enzyme yes, reaction time 6 h): 49.0; Decomposition efficiency of daidzin family in defatted soybean (pH3.4, heat treatment of enzyme: no, reaction time 0 h): 45.8%; Decomposition efficiency of daidzin family in defatted soybean (pH3.4, heat treatment of enzyme: no, reaction time 1 h): not detected; Decomposition efficiency of daidzin family in defatted soybean (pH3.4, heat treatment of enzyme: no, reaction time 3 h): not detected; Decomposition efficiency of daidzin family in defatted soybean (pH3.4, heat treatment of enzyme: no, reaction time 6 h): not detected; Decomposition efficiency of daidzin family in defatted soybean (pH3.4, heat treatment of enzyme: yes, reaction time 6 h): 47.8%; Decomposition efficiency of daidzin family in soymilk (pH3.5, heat treatment of enzyme: no, reaction time 0 h): 34.4%; Decomposition efficiency of daidzin family in soymilk (pH3.5, heat treatment of enzyme: no, reaction time 1 h): not detected; Decomposition efficiency of daidzin family in soymilk (pH3.5, heat treatment of enzyme: no, reaction time 3 h): not detected; Decomposition efficiency of daidzin family in soymilk (pH3.5, heat treatment of enzyme: no, reaction time 6 h): not detected; Decomposition efficiency of daidzin family in soymilk (pH3.5, heat treatment of enzyme: yes, reaction time 6 h): 40.4%; Decomposition efficiency of daidzin family in concentrated soybean protein (pH3.7, heat treatment of enzyme: no, reaction time 0 h): 52.5%; Decomposition efficiency of daidzin family in concentrated soybean protein (pH3.7, heat treatment of enzyme: no, reaction time 1 h): not detected; Decomposition efficiency of daidzin family in concentrated soybean protein (pH3.7, heat treatment of enzyme: no, reaction time 3 h): not detected; Decomposition efficiency of daidzin family in concentrated soybean protein (pH3.7, heat treatment of enzyme: no, reaction time 6 h): not detected; Decomposition efficiency of daidzin family in concentrated soybean protein (pH3.7, heat treatment of enzyme: yes, reaction time 6 h): 52.5%; Decomposition efficiency of daidzin family in roasted soy flour (pH4, heat treatment of enzyme no, reaction time 0 h): 48.7; Decomposition efficiency of daidzin family in roasted soy flour (pH4, heat treatment of enzyme no, reaction time 1 h): not detected; Decomposition efficiency of daidzin family in roasted soy flour (pH4, heat treatment of enzyme no, reaction time 3 h): not detected; Decomposition efficiency of daidzin family in roasted soy flour (pH4, heat treatment of enzyme no, reaction time 6 h): not detected; Decomposition efficiency of daidzin family in roasted soy flour (pH4, heat treatment of enzyme yes, reaction time 6 h): 48.6; Decomposition efficiency of daidzin family in defatted soybean [1]: 43.5%; Decomposition efficiency of daidzin family in soymilk [1]: 34.9%; Decomposition efficiency of daidzin family in defatted soybean [2]: not detected; Decomposition efficiency of daidzin family in soymilk [2]: not detected; Decomposition efficiency of daidzin family in defatted soybean [3]: not detected; Decomposition efficiency of daidzin family in soymilk [3]: not detected; Decomposition efficiency of daidzin family in defatted soybean [4]: not detected; Decomposition efficiency of daidzin family in soymilk [4]: not detected; Decomposition efficiency of daidzin family in defatted soybean [5]: 37.1%; Decomposition efficiency of daidzin family in soymilk [5]: 41.2%; Decomposition efficiency of daidzin family in roasted soy flour (pH5, heat treatment of enzyme no, reaction time 0 h): 48.7; Decomposition efficiency of daidzin family in roasted soy flour (pH5, heat treatment of enzyme no, reaction time 1 h): not detected; Decomposition efficiency of daidzin family in roasted soy flour (pH5, heat treatment of enzyme no, reaction time 3 h): not detected; Decomposition efficiency of daidzin family in roasted soy flour (pH5, heat treatment of enzyme no, reaction time 6 h): not detected; Decomposition efficiency of daidzin family in roasted soy flour (pH5, heat treatment of enzyme yes, reaction time 6 h): 50.6; Decomposition efficiency of daidzin family in concentrated soybean protein (pH5.1, heat treatment of enzyme: no, reaction time 0 h): 52.5%; Decomposition efficiency of daidzin family in concentrated soybean protein (pH5.1, heat treatment of enzyme: no, reaction time 1 h): not detected; Decomposition efficiency of daidzin family in concentrated soybean protein (pH5.1, heat treatment of enzyme: no, reaction time 3 h): not detected; Decomposition efficiency of daidzin family in concentrated soybean protein (pH5.1, heat treatment of enzyme: no, reaction time 6 h): not detected; Decomposition efficiency of daidzin family in concentrated soybean protein (pH5.1, heat treatment of enzyme: yes, reaction time 6 h): 53.4%; Decomposition efficiency of daidzin family in defatted soybean (pH5.4, heat treatment of enzyme: no, reaction time 0 h): 43.5%; Decomposition efficiency of daidzin family in defatted soybean (pH5.4, heat treatment of enzyme: no, reaction time 1 h): not detected; Decomposition efficiency of daidzin family in defatted soybean (pH5.4, heat treatment of enzyme: no, reaction time 3 h): not detected; Decomposition efficiency of daidzin family in defatted soybean (pH5.4, heat treatment of enzyme: no, reaction time 6 h): not detected; Decomposition efficiency of daidzin family in defatted soybean (pH5.4, heat treatment of enzyme: yes, reaction time 6 h): not detected; Decomposition efficiency of daidzin family in soymilk (pH6.2, heat treatment of enzyme: no, reaction time 0 h): 34.9%; Decomposition efficiency of daidzin family in soymilk (pH6.2, heat treatment of enzyme: no, reaction time 1 h): not detected; Decomposition efficiency of daidzin family in soymilk (pH6.2, heat treatment of enzyme: no, reaction time 3 h): not detected; Decomposition efficiency of daidzin family in soymilk (pH6.2, heat treatment of enzyme: no, reaction time 6 h): not detected; Decomposition efficiency of daidzin family in soymilk (pH6.2, heat treatment of enzyme: yes, reaction time 6 h): 40.6%; Decomposition efficiency of daidzin family in roasted soy flour (pH6.5, heat treatment of enzyme no, reaction time 0 h): 48.4; Decomposition efficiency of daidzin family in roasted soy flour (pH6.5, heat treatment of enzyme no, reaction time 1 h): not detected; Decomposition efficiency of daidzin family in roasted soy flour (pH6.5, heat treatment of enzyme no, reaction time 3 h): not detected; Decomposition efficiency of daidzin family in roasted soy flour (pH6.5, heat treatment of enzyme no, reaction time 6 h): not detected; Decomposition efficiency of daidzin family in roasted soy flour (pH6.5, heat treatment of enzyme yes, reaction time 6 h): 51.9; Decomposition efficiency of daidzin family in concentrated soybean protein [6]: 52.1%; Decomposition efficiency of daidzin family in defatted soybean [6]: 43.6%; Decomposition efficiency of daidzin family in concentrated soybean protein [7]: 5.0%; Decomposition efficiency of daidzin family in defatted soybean [7]: not detected; Decomposition efficiency of daidzin family in concentrated soybean protein [8]: not detected; Decomposition efficiency of daidzin family in defatted soybean [8]: not detected; Decomposition efficiency of daidzin family in concentrated soybean protein [9]: not detected; Decomposition efficiency of daidzin family in defatted soybean [9]: not detected; Decomposition efficiency of daidzin family in concentrated soybean protein [10]: 55.1%; Decomposition efficiency of daidzin family in defatted soybean [10]: 9.3%; Decomposition efficiency of daidzin family in soymilk (pH7.2, heat treatment of enzyme: no, reaction time 0 h): 34.9%; Decomposition efficiency of daidzin family in soymilk (pH7.2, heat treatment of enzyme: no, reaction time 1 h): not detected; Decomposition efficiency of daidzin family in soymilk (pH7.2, heat treatment of enzyme: no, reaction time 3 h): not detected; Decomposition efficiency of daidzin family in soymilk (pH7.2, heat treatment of enzyme: no, reaction time 6 h): not detected; Decomposition efficiency of daidzin family in soymilk (pH7.2, heat treatment of enzyme: yes, reaction time 6 h): 41.5%; Decomposition efficiency of daidzin family in defatted soybean (pH7.8, heat treatment of enzyme: no, reaction time 0 h): 44.7%; Decomposition efficiency of daidzin family in defatted soybean (pH7.8, heat treatment of enzyme: no, reaction time 1 h): 13.3%; Decomposition efficiency of daidzin family in defatted soybean (pH7.8, heat treatment of enzyme: no, reaction time 3 h): 10.1%; Decomposition efficiency of daidzin family in defatted soybean (pH7.8, heat treatment of enzyme: no, reaction time 6 h): 9.4%; Decomposition efficiency of daidzin family in defatted soybean (pH7.8, heat treatment of enzyme: yes, reaction time 6 h): 41.6%; Decomposition efficiency of daidzin family in roasted soy flour (pH8.5, heat treatment of enzyme no, reaction time 0 h): 54.1; Decomposition efficiency of daidzin family in roasted soy flour (pH8.5, heat treatment of enzyme no, reaction time 1 h): 20.4; Decomposition efficiency of daidzin family in roasted soy flour (pH8.5, heat treatment of enzyme no, reaction time 3 h): 13.3; Decomposition efficiency of daidzin family in roasted soy flour (pH8.5, heat treatment of enzyme no, reaction time 6 h): 10.2; Decomposition efficiency of daidzin family in roasted soy flour (pH8.5, heat treatment of enzyme yes, reaction time 6 h): 58.8; Decomposition efficiency of daidzin family in concentrated soybean protein (pH8.6, heat treatment of enzyme: no, reaction time 0 h): 56.1%; Decomposition efficiency of daidzin family in concentrated soybean protein (pH8.6, heat treatment of enzyme: no, reaction time 1 h): 50.8%; Decomposition efficiency of daidzin family in concentrated soybean protein (pH8.6, heat treatment of enzyme: no, reaction time 3 h): 45.0%; Decomposition efficiency of daidzin family in concentrated soybean protein (pH8.6, heat treatment of enzyme: no, reaction time 6 h): 34.5%; Decomposition efficiency of daidzin family in concentrated soybean protein (pH8.6, heat treatment of enzyme: yes, reaction time 6 h): 59.1%; Decomposition efficiency of daidzin family in soymilk (pH11.6, heat treatment of enzyme: no, reaction time 0 h): 38.8%; Decomposition efficiency of daidzin family in soymilk (pH11.6, heat treatment of enzyme: no, reaction time 1 h): not detected; Decomposition efficiency of daidzin family in soymilk (pH11.6, heat treatment of enzyme: no, reaction time 3 h): not detected; Decomposition efficiency of daidzin family in soymilk (pH11.6, heat treatment of enzyme: no, reaction time 6 h): not detected; Decomposition efficiency of daidzin family in soymilk (pH11.6, heat treatment of enzyme: yes, reaction time 6 h): 44.6%
